Experimental findings from patent US9000012B2 (priority 2009, dated 2015) are described below.

Where two headings read alike, the source gives them in different places.

A short description of series [1]: logP of the compounds of table 1. The class given is physicochemical.
Series [2] in a line: logP of the compounds of table 1. The class given is physicochemical. This is another data set of the same source.

The compound `C#CCCCCOC(=O)Nc1nc(CON=C(C(=O)N(C)C)c2ccccc2)cs1` [compound 122] registered a logP in series [1] of 3.06.

Compound `C#CCCOC(=O)Nc1nc(CON=C(C(=O)N(C)CC)c2ccccc2)cs1` [compound 152] registered a logP in series [1] of 2.80.

Regarding `CCON(C)C(=O)C(=NOCc1csc(NC(=O)OCCOc2ccccc2)n1)c1ccccc1` [compound 209], the logP in series [2] was found to be 3.62.

Turning to `CCON(C)C(=O)C(=NOCc1csc(NC(=O)Cc2ccc(OC)cc2)n1)c1ccccc1` [compound 210], the logP in series [2] stood at 3.23.

With `COC(=O)C(=NOCc1cccc(NCCC2CCCCC2)n1)c1ccccc1` [compound 44], in series [1], the logP is 3.04.

For `CCON(C)C(=O)C(=NOCc1csc(N)n1)c1ccccc1` [compound 208], the logP in series [2] was 1.35.

The compound `C#CCCOC(=O)Nc1nc(CON=C(C(=O)N(C)C)c2ccccc2)cs1` [compound 120] gave a logP in series [1] of 2.84.

On to `CNC(=O)C(=NOCc1cccc(NC(=O)c2cccc(F)c2)n1)c1ccccc1` [compound 78], for which, in series [1], the logP is on record as 2.84.

Turning to `COC(=O)C(=NOCc1cccc(NC(=O)C(F)(F)Oc2ccccc2)n1)c1ccccc1` [compound 38], the logP in series [1] is given as 4.41.

Consider `CCON(C)C(=O)C(=NOCc1cccc(NC(=O)OC(C)(C)C)n1)c1ccccc1` [compound 201], for which, in series [2], the logP is given as 2.38.

Compound `COc1ccc(CC(=O)Nc2nc(CON=C(C(=O)N(C)C)c3ccccc3)cs2)cc1` [compound 131] came in with a logP in series [1] of 2.88.

Turning to `CN(C)C(=O)C(=NOCc1csc(NC(=O)c2ccc(Cl)cc2)n1)c1ccccc1` [compound 132], the logP in series [1] came out at 3.41.

With `COc1ccc(OC(=O)Nc2cccc(CON=C(C(=O)N(C)C)c3ccccc3)n2)cc1` [compound 117], the logP in series [1] was determined as 3.25.

As to `CCN(C)C(=O)C(=NOCc1csc(NC(=O)Cc2ccc(OC)cc2)n1)c1ccccc1` [compound 147], the logP in series [1] stood at 3.09.

As to `CCCCCOC(=O)Nc1cccc(CON=C(C(=O)NC)c2ccc(Oc3ccccc3)cc2)n1` [compound 65], the logP in series [1] was found to be 2.64.

The compound `CCON(C)C(=O)C(=NOCc1cccc(NC(=O)OCCOc2ccccc2)n1)c1ccccc1` [compound 207] gave a logP in series [2] of 3.89.

With `COC(=O)C(=NOCc1cccc(NC(=O)Cc2ccc(OC)cc2)n1)c1ccccc1` [compound 39], in series [1], the logP is 3.69.

`CCON(C)C(=O)C(=NOCc1cccc(NC(=O)Cc2ccc(OC)cc2)n1)c1ccccc1` [compound 206] yielded a logP in series [2] of 3.37.

Turning to `CN(C)C(=O)C(=NOCc1cccc(NC(=O)c2ccc(Cl)cc2)n1)c1ccccc1` [compound 114], in series [1], the logP is 3.57.

`COc1ccc(C(=O)Nc2nc(CON=C(C(=O)N(C)C)c3ccccc3)cs2)cc1` [compound 134]: in series [1], the logP was 2.84.

With `CCON(C)C(=O)C(=NOCc1cccc(NC(=O)C2COc3ccccc3O2)n1)c1ccccc1` (centres unmarked) [compound 203], the logP in series [2] amounted to 3.83.

In turn, `CNC(=O)C(=NOCc1cccc(NCCCc2ccccc2)n1)c1ccccc1` [compound 79] returned a log partition coefficient (logP) in series [1] of 1.94.

In series [2], `C#CCCOC(=O)Nc1cccc(CON=C(C(N)=S)c2ccccc2)n1` [compound 310] came in with a logP of 2.75.

`CN(C)C(=O)C(=NOCc1cccc(N)n1)c1ccccc1` [compound 97] gave a logP in series [1] of 1.10.

In series [2], `C#CCCOC(=O)Nc1cccc(CON=C(C(=N)SC)c2ccccc2)n1` [compound 309] came in with a logP of 3.02.

`C=CCCOC(=O)Nc1cccc(CON=C(C(=O)OC)c2ccccc2)n1` [compound 42] yielded a logP in series [1] of 3.94.

Regarding `CCN(C)C(=O)C(=NOCc1cccc(NC(=O)C(C)Oc2ccccc2)n1)c1ccccc1` (centres unmarked) [compound 136], the logP in series [1] was determined as 3.78.

With `CNC(=O)C(=NOCc1cccc(NC(=O)C(F)(F)Oc2ccccc2)n1)c1ccccc1` [compound 76], in series [1], the logP is 3.35.

On to `C#CCC(C)OC(=O)Nc1cccc(CON=C(C(=O)N(C)CC)c2ccccc2)n1` (centres unmarked) [compound 135], for which, in series [1], the logP was 3.31.

In turn, `CCN(C)C(=O)C(=NOCc1csc(NC(=O)C2COc3ccccc3O2)n1)c1ccccc1` (centres unmarked) [compound 149] registered a logP in series [1] of 3.39.

`CCN(C)C(=O)C(=NOCc1csc(NC(=O)c2ccc(Cl)cc2)n1)c1ccccc1` [compound 150] displayed a logP in series [1] of 3.69.

`C#CCCCCOC(=O)Nc1cccc(CON=C(C(=O)N(C)CC)c2ccccc2)n1` [compound 138] gave a logP in series [1] of 3.35.

`CCN(C)C(=O)C(=NOCc1cccc(NC(=O)OC(C)(C)C)n1)c1ccccc1` [compound 142] gave a logP in series [1] of 3.72.

With `C#CCCOC(=O)Nc1cccc(CON=C(C(=N)N(C)N)c2ccccc2)n1` [compound 308], the logP in series [2] is 1.77.

`CCCCCCOC(=O)Nc1cccc(CON=C(C(=O)OC)c2ccccc2)n1` [compound 46] had a logP in series [1] of 5.14.

Take `CCON(C)C(=O)C(=NOCc1cccc(NC(=O)C(C)Oc2ccccc2)n1)c1ccccc1` (centres unmarked) [compound 205]: the logP in series [2] was 3.94.

Take `CNC(=O)C(=NOCc1cccc(NC(=O)c2cccs2)n1)c1ccccc1` [compound 81]: in series [1], the logP turned out to be 2.57.

In turn, `C#CCCCCOC(=O)Nc1cccc(CON=C(C(=O)N(C)OCC)c2ccccc2)n1` [compound 202] displayed a logP in series [2] of 3.71.

The compound `CCN(C)C(=O)C(=NOCc1cccc(NC(=O)OCCOc2ccccc2)n1)c1ccccc1` [compound 141] yielded a logP in series [1] of 3.76.

In turn, `COC(=O)C(=NOCc1cccc(NC(=O)C2COc3ccccc3O2)n1)c1ccccc1` (centres unmarked) [compound 37] displayed a logP in series [1] of 4.16.

`CC#CCOC(=O)Nc1cccc(CON=C(C(=O)NC)c2ccccc2)n1` [compound 83] showed a logP in series [1] of 2.59.

For `C#CCCCCOC(=O)Nc1nc(CON=C(C(=O)N(C)OCC)c2ccccc2)cs1` [compound 211], in series [2], the logP was 3.44.

With `CNC(=O)C(=NOCc1cccc(N)n1)c1ccccc1` [compound 60], the logP in series [1] was 0.65.

Regarding `C#CCCOC(=O)Nc1cccc(CON=C(C#N)c2ccccc2)n1` (single isomer, unassigned) [Example 3, but-3-yn-1-yl{6-[({[cyano(phenyl)methylene]amino}oxy)methyl]pyridin-2-yl}carbamate], the logP in series [1] (read-out: logP) was determined as 3.67.

In the case of `CNC(=O)C(=NOCc1cccc(NCCC2CCCCC2)n1)c1ccccc1` [compound 82], in series [1], the logP is 2.23.

Take `COC(=O)C(=NOCc1cccc(NC(=O)OC(C)(C)C)n1)c1ccccc1` [compound 26]: in series [1], the logP was found to be 4.20.

In turn, `CCN(C)C(=O)C(=NOCc1csc(N)n1)c1ccccc1` [compound 144] registered a logP in series [1] of 1.34.

Consider `CCCCCCOC(=O)Nc1cccc(CON=C(C(=O)NC)c2ccccc2)n1` [compound 84], for which the logP in series [1] came out at 3.48.

As for `CCCCCOC(=O)Nc1cccc(CON=C(C(=O)OC)c2ccccc2)n1` [compound 27], in series [1], the logP came to 3.69.

In series [1], `CNC(=O)C(=NOCc1cccc(N)n1)c1ccc(OCc2ccccc2)cc1` [compound 61] yielded a logP of 1.17.

On to `C#CCC(C)OC(=O)Nc1nc(CON=C(C(=O)N(C)C)c2ccccc2)cs1` (centres unmarked) [compound 121], for which, in series [1], the logP was 2.84.

For the compound `C#CCCCCOC(=O)Nc1nc(CON=C(C(=O)N(C)CC)c2ccccc2)cs1` [compound 148], in series [1], the logP worked out at 3.29.

Regarding `C#CCC(C)OC(=O)Nc1nc(CON=C(C(=O)N(C)CC)c2ccccc2)cs1` (centres unmarked) [compound 145], the logP in series [1] is reported as 3.09.

In the case of `C#CCCOC(=O)Nc1cccc(CON=C(C(=O)N(C)CC)c2ccccc2)n1` [compound 143], in series [1], the logP is recorded as 3.04.

Turning to `CCN(C)C(=O)C(=NOCc1csc(NC(=O)OCCOc2ccccc2)n1)c1ccccc1` [compound 151], the logP in series [1] stood at 3.48.

On to `CNC(=O)C(=NOCc1cccc(NC(=O)Cc2ccc(OC)cc2)n1)c1ccccc1` [compound 77], for which the logP in series [1] was found to be 2.66.

Compound `C=CCCOC(=O)Nc1cccc(CON=C(C(=O)NC)c2ccccc2)n1` [compound 80] gave a logP in series [1] of 2.77.

The compound `COC(=O)C(=NOCc1cccc(NC(=O)c2cccc(F)c2)n1)c1ccccc1` [compound 40] displayed a logP in series [1] of 3.94.

On to `COC(=O)C(=NOCc1cccc(N)n1)c1ccccc1` [compound 25], for which the logP in series [1] was 1.32.

For `CN(C)C(=O)C(=NOCc1csc(NC(=O)OCCOc2ccccc2)n1)c1ccccc1` [compound 133], the logP in series [1] came out at 3.27.

`COC(=O)C(=NOCc1cccc(NC(=O)c2cccs2)n1)c1ccccc1` [compound 43]: the logP in series [1] was 3.67.

Consider `CCN(C)C(=O)C(=NOCc1cccc(NC(=O)Cc2ccc(OC)cc2)n1)c1ccccc1` [compound 137], for which the logP in series [1] is 3.23.

`CCN(C)C(=O)C(=NOCc1cccc(NC(=O)c2ccc(Cl)cc2)n1)c1ccccc1` [compound 140]: the logP in series [1] amounted to 3.85.

`CNC(=O)C(=NOCc1cccc(NC(=O)OC(C)(C)C)n1)c1ccccc1` [compound 62] showed a logP in series [1] of 2.88.

On to `C=CCCOC(=O)Nc1cccc(CON=C(C(=O)N(C)C)c2ccccc2)n1` [compound 116], for which the logP in series [1] turned out to be 3.19.

`CCN(C)C(=O)C(=NOCc1cccc(NC(=O)C2COc3ccccc3O2)n1)c1ccccc1` (centres unmarked) [compound 139]: in series [1], the logP is reported as 3.69.

Consider `CCCCCOC(=O)Nc1cccc(CON=C(C(=O)NC)c2ccc(OCc3ccccc3)cc2)n1` [compound 64], for which the logP in series [1] stood at 2.65.

On to `CN(C)C(=O)C(=NOCc1cccc(NC(=O)c2cccc(F)c2)n1)c1ccccc1` [compound 113], for which the logP in series [1] was found to be 3.23.

For `C#CCCOC(=O)Nc1cccc(CON=C(C(=O)OC)c2ccccc2)n1` [compound 28], in series [1], the logP is recorded as 3.48.

`CC#CCOC(=O)Nc1cccc(CON=C(C(=O)OC)c2ccccc2)n1` [compound 45] gave a logP in series [1] of 3.67.

For the compound `CN(C)C(=O)C(=NOCc1cccc(NC(=O)OCCOc2ccccc2)n1)c1ccccc1` [compound 115], the logP in series [1] worked out at 3.48.

In series [1], `COC(=O)C(=NOCc1cccc(NCCCc2ccccc2)n1)c1ccccc1` [compound 41] displayed a logP of 2.60.

Compound `CCN(C)C(=O)C(=NOCc1csc(NC(=O)C(C)Oc2ccccc2)n1)c1ccccc1` (centres unmarked) [compound 146] returned a logP in series [1] of 3.48.

Turning to `CC(C)(C)OC(=O)Nc1cccc(CON=C(C#N)c2ccccc2)n1` [compound 1], the logP in series [1] came out at 4.64.
